In patent publication US20230049952A1, “METHODS AND COMPOUNDS FOR RESTORING MUTANT P53 FUNCTION” (PMV Pharmaceuticals, Inc., priority 2020, published 2023):

Test system: p53 signaling pathway in MT373 tumors
Test: MT373 syngeneic sarcoma model: mouse p53 signaling pathway profiling panel
Assay type: in vivo

## CCn1c(C#CCNc2ccccc2)cc2cc(CNC3CCN(C)CC3)ccc21 [Compound 1, 1-Anilino-3-{1-ethyl-5-[(1-methyl-4-piperidylamino)methyl]-1H-indol-2-yl}-2-propyne]
75 mg/kg BIDx1, 48 h
  Dnmt1 fold increase or percent reduction vs vehicle control: 1.11 fold or %
  E2f1 fold increase or percent reduction vs vehicle control: 1.24 fold or %
  E2f3 fold increase or percent reduction vs vehicle control: 30.44 fold or %
  Egfr fold increase or percent reduction vs vehicle control: 34.80 fold or %
  Egr1 fold increase or percent reduction vs vehicle control: 39.68 fold or %
  Ep300 fold increase or percent reduction vs vehicle control: 1.01 fold or %
  Ercc1 fold increase or percent reduction vs vehicle control: 43.22 fold or %
  Esr1 fold increase or percent reduction vs vehicle control: 1.78 fold or %
  Fadd fold increase or percent reduction vs vehicle control: 1.13 fold or %
  Fas fold increase or percent reduction vs vehicle control: 10.67 fold or %
  Fasl fold increase or percent reduction vs vehicle control: 1.48 fold or %
  Foxo3 fold increase or percent reduction vs vehicle control: 3.18 fold or %
  Gadd45a fold increase or percent reduction vs vehicle control: 49.07 fold or %
  Hif1a fold increase or percent reduction vs vehicle control: 1.22 fold or %
  Il6 fold increase or percent reduction vs vehicle control: 80.18 fold or %
  Jun fold increase or percent reduction vs vehicle control: 29.72 fold or %
  Kras fold increase or percent reduction vs vehicle control: 1.01 fold or %
  Lig4 fold increase or percent reduction vs vehicle control: 1.05 fold or %
  Mdm2 fold increase or percent reduction vs vehicle control: 12.55 fold or %
  Mdm4 fold increase or percent reduction vs vehicle control: 19.35 fold or %
  Mel1 fold increase or percent reduction vs vehicle control: 31.09 fold or %
  Mlh1 fold increase or percent reduction vs vehicle control: 7.78 fold or %
  Msh2 fold increase or percent reduction vs vehicle control: 11.63 fold or %
  Myod1 fold increase or percent reduction vs vehicle control: 4.06 fold or %
  Nf1 fold increase or percent reduction vs vehicle control: 29.60 fold or %
  Nfkb1 fold increase or percent reduction vs vehicle control: 7.16 fold or %
  Pcna fold increase or percent reduction vs vehicle control: 38.45 fold or %
  Pmaip1 fold increase or percent reduction vs vehicle control: 1.15 fold or %
  Ppm1d fold increase or percent reduction vs vehicle control: 4.68 fold or %
  Prc1 fold increase or percent reduction vs vehicle control: 16.43 fold or %
  Prkca fold increase or percent reduction vs vehicle control: 13.73 fold or %
  Pten fold increase or percent reduction vs vehicle control: 1.01 fold or %
  Pttg1 fold increase or percent reduction vs vehicle control: 1.08 fold or %
  Rb1 fold increase or percent reduction vs vehicle control: 2.55 fold or %
  Rela fold increase or percent reduction vs vehicle control: 1.07 fold or %
  Rprm fold increase or percent reduction vs vehicle control: 2.09 fold or %
  Serpinb5 fold increase or percent reduction vs vehicle control: 1.90 fold or %
  Sesn2 fold increase or percent reduction vs vehicle control: 1.57 fold or %
  Sfn fold increase or percent reduction vs vehicle control: 1.00 fold or %
  Sirt1 fold increase or percent reduction vs vehicle control: 1.01 fold or %
  Stat1 fold increase or percent reduction vs vehicle control: 1.73 fold or %
  Tnf fold increase or percent reduction vs vehicle control: 1.36 fold or %
  Traf1 fold increase or percent reduction vs vehicle control: 1.38 fold or %
  Trp53bp2 fold increase or percent reduction vs vehicle control: 1.06 fold or %
  Trp53 fold increase or percent reduction vs vehicle control: 1.16 fold or %
75 mg/kg BIDx1, 72 h
  Apex1 fold increase or percent reduction vs vehicle control: 24.49 fold or %
  Atm fold increase or percent reduction vs vehicle control: 12.27 fold or %
  Atr fold increase or percent reduction vs vehicle control: 1.01 fold or %
  Bag1 fold increase or percent reduction vs vehicle control: 25.72 fold or %
  Bax fold increase or percent reduction vs vehicle control: 20.93 fold or %
  Bbc3 fold increase or percent reduction vs vehicle control: 1.08 fold or %
  Bcl2 fold increase or percent reduction vs vehicle control: 2.76 fold or %
  Bid fold increase or percent reduction vs vehicle control: 1.12 fold or %
  Birc5 fold increase or percent reduction vs vehicle control: 12.81 fold or %
  Brca1 fold increase or percent reduction vs vehicle control: 10.57 fold or %
  Brca2 fold increase or percent reduction vs vehicle control: 12.51 fold or %
  Btg2 fold increase or percent reduction vs vehicle control: 16.69 fold or %
  Casp2 fold increase or percent reduction vs vehicle control: 5.88 fold or %
  Ccnb1 fold increase or percent reduction vs vehicle control: 10.10 fold or %
  Ccne1 fold increase or percent reduction vs vehicle control: 1.09 fold or %
  Ccng1 fold increase or percent reduction vs vehicle control: 9.69 fold or %
  Ccnh fold increase or percent reduction vs vehicle control: 11.39 fold or %
  Cdc25a fold increase or percent reduction vs vehicle control: 7.34 fold or %
  Cdk1 fold increase or percent reduction vs vehicle control: 23.09 fold or %
  Cdk4 fold increase or percent reduction vs vehicle control: 22.60 fold or %
  Cdkn1a fold increase or percent reduction vs vehicle control: 1.42 fold or %
  Cdkn2a fold increase or percent reduction vs vehicle control: 39.53 fold or %
  Chek1 fold increase or percent reduction vs vehicle control: 20.93 fold or %
  Cradd fold increase or percent reduction vs vehicle control: 31.95 fold or %
  Cul9 fold increase or percent reduction vs vehicle control: 1.28 fold or %
  Dapk1 fold increase or percent reduction vs vehicle control: 1.11 fold or %
  Dnmt1 fold increase or percent reduction vs vehicle control: 1.02 fold or %
  E2f1 fold increase or percent reduction vs vehicle control: 1.14 fold or %
  E2f3 fold increase or percent reduction vs vehicle control: 15.87 fold or %
  Egfr fold increase or percent reduction vs vehicle control: 24.18 fold or %
  Egr1 fold increase or percent reduction vs vehicle control: 40.49 fold or %
  Ep300 fold increase or percent reduction vs vehicle control: 9.15 fold or %
  Ercc1 fold increase or percent reduction vs vehicle control: 29.53 fold or %
  Esr1 fold increase or percent reduction vs vehicle control: 1.39 fold or %
  Fadd fold increase or percent reduction vs vehicle control: 1.43 fold or %
  Fas fold increase or percent reduction vs vehicle control: 12.05 fold or %
  Fasl fold increase or percent reduction vs vehicle control: 1.42 fold or %
  Foxo3 fold increase or percent reduction vs vehicle control: 14.18 fold or %
  Gadd45a fold increase or percent reduction vs vehicle control: 25.11 fold or %
  Hif1a fold increase or percent reduction vs vehicle control: 1.19 fold or %
  Il6 fold increase or percent reduction vs vehicle control: 65.67 fold or %
  Jun fold increase or percent reduction vs vehicle control: 25.77 fold or %
  Kras fold increase or percent reduction vs vehicle control: 1.09 fold or %
  Lig4 fold increase or percent reduction vs vehicle control: 1.12 fold or %
  Mdm2 fold increase or percent reduction vs vehicle control: 2.80 fold or %
  Mdm4 fold increase or percent reduction vs vehicle control: 14.78 fold or %
  Mel1 fold increase or percent reduction vs vehicle control: 21.11 fold or %
  Mlh1 fold increase or percent reduction vs vehicle control: 4.80 fold or %
  Msh2 fold increase or percent reduction vs vehicle control: 16.07 fold or %
  Myod1 fold increase or percent reduction vs vehicle control: 2.73 fold or %
  Nf1 fold increase or percent reduction vs vehicle control: 21.43 fold or %
  Nfkb1 fold increase or percent reduction vs vehicle control: 1.73 fold or %
  Pcna fold increase or percent reduction vs vehicle control: 23.22 fold or %
  Pmaip1 fold increase or percent reduction vs vehicle control: 1.03 fold or %
  Ppm1d fold increase or percent reduction vs vehicle control: 5.34 fold or %
  Prc1 fold increase or percent reduction vs vehicle control: 6.02 fold or %
  Prkca fold increase or percent reduction vs vehicle control: 6.98 fold or %
  Pten fold increase or percent reduction vs vehicle control: 3.49 fold or %
  Pttg1 fold increase or percent reduction vs vehicle control: 1.03 fold or %
  Rb1 fold increase or percent reduction vs vehicle control: 3.16 fold or %
  Rela fold increase or percent reduction vs vehicle control: 4.69 fold or %
  Rprm fold increase or percent reduction vs vehicle control: 1.34 fold or %
  Serpinb5 fold increase or percent reduction vs vehicle control: 15.52 fold or %
  Sesn2 fold increase or percent reduction vs vehicle control: 1.11 fold or %
  Sfn fold increase or percent reduction vs vehicle control: 8.30 fold or %
  Sirt1 fold increase or percent reduction vs vehicle control: 5.18 fold or %
  Stat1 fold increase or percent reduction vs vehicle control: 1.58 fold or %
  Tnf fold increase or percent reduction vs vehicle control: 1.28 fold or %
  Traf1 fold increase or percent reduction vs vehicle control: 1.16 fold or %
  Trp53bp2 fold increase or percent reduction vs vehicle control: 7.94 fold or %
  Trp53 fold increase or percent reduction vs vehicle control: 1.11 fold or %
75 mg/kg BID×1, 24 h
  Bbc3 mRNA increase: 1.80 fold
  Birc5 mRNA decrease: 45.92%
  Ccng1 mRNA increase: 4.63 fold
  Cdc25c mRNA decrease: 60.54%
  Cdk1 mRNA decrease: 59.92%
  Cdkn1a mRNA increase: 5.16 fold
  Chek1 mRNA decrease: 52.36%
  Egfr mRNA change: 28.18%
  Il6 mRNA change: 70.78%
  Mdm2 mRNA increase: 2.76 fold
  Sesn2 mRNA increase: 2.05 fold
  Zmat3 mRNA increase: 4.14 fold
150 mg/kg BIDx1, 8 h
  Apex1 fold increase or percent reduction vs vehicle control: 27.35 fold or %
  Atm fold increase or percent reduction vs vehicle control: 22.22 fold or %
  Atr fold increase or percent reduction vs vehicle control: 27.07 fold or %
  Bag1 fold increase or percent reduction vs vehicle control: 23.32 fold or %
  Bax fold increase or percent reduction vs vehicle control: 1.68 fold or %
  Bbc3 fold increase or percent reduction vs vehicle control: 1.97 fold or %
  Bcl2 fold increase or percent reduction vs vehicle control: 28.71 fold or %
  Bid fold increase or percent reduction vs vehicle control: 12.20 fold or %
  Birc5 fold increase or percent reduction vs vehicle control: 26.07 fold or %
  Brca1 fold increase or percent reduction vs vehicle control: 34.27 fold or %
  Brca2 fold increase or percent reduction vs vehicle control: 36.90 fold or %
  Btg2 fold increase or percent reduction vs vehicle control: 13.04 fold or %
  Casp2 fold increase or percent reduction vs vehicle control: 34.08 fold or %
  Ccnb1 fold increase or percent reduction vs vehicle control: 15.72 fold or %
  Ccne1 fold increase or percent reduction vs vehicle control: 40.62 fold or %
  Ccng1 fold increase or percent reduction vs vehicle control: 6.49 fold or %
  Ccnh fold increase or percent reduction vs vehicle control: 29.12 fold or %
  Cdc25a fold increase or percent reduction vs vehicle control: 34.26 fold or %
  Cdk1 fold increase or percent reduction vs vehicle control: 39.81 fold or %
  Cdk4 fold increase or percent reduction vs vehicle control: 47.61 fold or %
  Cdkn1a fold increase or percent reduction vs vehicle control: 8.66 fold or %
  Cdkn2a fold increase or percent reduction vs vehicle control: 42.49 fold or %
  Chek1 fold increase or percent reduction vs vehicle control: 41.91 fold or %
  Cradd fold increase or percent reduction vs vehicle control: 36.95 fold or %
  Cul9 fold increase or percent reduction vs vehicle control: 26.00 fold or %
  Dapk1 fold increase or percent reduction vs vehicle control: 2.02 fold or %
  Dnmt1 fold increase or percent reduction vs vehicle control: 17.37 fold or %
  E2f1 fold increase or percent reduction vs vehicle control: 27.89 fold or %
  E2f3 fold increase or percent reduction vs vehicle control: 27.45 fold or %
  Egfr fold increase or percent reduction vs vehicle control: 39.84 fold or %
  Egr1 fold increase or percent reduction vs vehicle control: 53.86 fold or %
  Ep300 fold increase or percent reduction vs vehicle control: 11.02 fold or %
  Ercc1 fold increase or percent reduction vs vehicle control: 16.08 fold or %
  Esr1 fold increase or percent reduction vs vehicle control: 14.42 fold or %
  Fadd fold increase or percent reduction vs vehicle control: 31.64 fold or %
  Fas fold increase or percent reduction vs vehicle control: 2.12 fold or %
  Fasl fold increase or percent reduction vs vehicle control: 3.98 fold or %
  Foxo3 fold increase or percent reduction vs vehicle control: 1.15 fold or %
  Gadd45a fold increase or percent reduction vs vehicle control: 23.94 fold or %
  Hif1a fold increase or percent reduction vs vehicle control: 1.07 fold or %
